Reference: ChEMBL document CHEMBL1152091, “The synthesis and identification of 4,6-diaminoquinoline derivatives as potent immunostimulants” (1992)

Tested on: Mus musculus
Assay: Immunostimulant activity after subcutaneous administration using mouse protection assay
Type: functional
Details: sc, read-out: MED

**Q.** Which minimal effective dose does the source give for `Nc1ccc2nccc(Nc3ccc(OCC4CCCCC4)cc3)c2c1` here?
**A.** The minimal effective dose was 12.5 mg/kg.

**Q.** With `CS(=O)(=O)Nc1ccc2nc(-c3ccccc3)cc(Nc3ccc(OCC4CCCCC4)cc3)c2c1` as the compound, how does the minimal effective dose read?
**A.** The minimal effective dose was 12.5 mg/kg.

**Q.** Which minimal effective dose does the source give for `Nc1ccc2nc(-c3ccccc3)cc(Nc3ccc(F)c(F)c3)c2c1` here?
**A.** The minimal effective dose was 6.25 mg/kg.

**Q.** `Nc1ccc2nc(-c3ccccc3)cc(Nc3ccc(Cl)cc3)c2c1` was tested. Which minimal effective dose did it give?
**A.** Its minimal effective dose is 5.6 mg/kg.

**Q.** With `O=[N+]([O-])c1ccc2nc(-c3ccccc3)cc(Nc3ccc(OCC4CCCCC4)cc3)c2c1` as the compound, how does the minimal effective dose read?
**A.** The minimal effective dose was > 50 mg/kg.

**Q.** `Cc1cc(Nc2ccc(OCC3CCCCC3)cc2)c2cc(NC(N)=O)ccc2n1` was tested. Which minimal effective dose did it give?
**A.** The minimal effective dose was 50 mg/kg.

**Q.** For `Nc1ccc2nc(-c3ccccc3)cc(NC3CCCCC3)c2c1`, which minimal effective dose is on record?
**A.** Its minimal effective dose is > 100 mg/kg.

**Q.** For `Nc1ccc2nc(-c3ccccc3)cc(Nc3ccc(OCC4CCCCC4)cc3)c2c1`, which minimal effective dose is on record?
**A.** The minimal effective dose was 5.6 mg/kg.

**Q.** Which minimal effective dose does the source give for `O=[N+]([O-])c1ccc2nc(-c3ccccc3)cc(Nc3ccc(Cl)cc3)c2c1` here?
**A.** Its minimal effective dose is > 50 mg/kg.

**Q.** With `CCOc1ccc(Nc2ccnc3ccc(N)cc23)cc1` as the compound, how does the minimal effective dose read?
**A.** Its minimal effective dose is 6.25 mg/kg.

**Q.** How did the minimal effective dose turn out when `CC(=O)Nc1ccc2nccc(Nc3ccc(OCC4CCCCC4)cc3)c2c1` was run?
**A.** Its minimal effective dose is 6.25 mg/kg.

**Q.** With `NC(=O)Nc1ccc2nc(-c3ccccc3)cc(Nc3ccc(OCC4CCCCC4)cc3)c2c1` as the compound, how does the minimal effective dose read?
**A.** The minimal effective dose was 6.25 mg/kg.

**Q.** `Cc1cc(Nc2ccc(OCC3CCCCC3)cc2)c2cc(N)ccc2n1` was tested. Which minimal effective dose did it give?
**A.** The minimal effective dose was 6.25 mg/kg.

**Q.** `CC(=O)Nc1ccc2nc(C)cc(Nc3ccc(OCC4CCCCC4)cc3)c2c1` was tested. Which minimal effective dose did it give?
**A.** The minimal effective dose was 12.5 mg/kg.

**Q.** How did the minimal effective dose turn out when `Cc1cc(Nc2ccc(F)c(F)c2)c2cc(N)ccc2n1` was run?
**A.** The minimal effective dose was 12.5 mg/kg.

**Q.** `CCCCOc1ccc(Nc2ccnc3ccc(N)cc23)cc1` was tested. Which minimal effective dose did it give?
**A.** The minimal effective dose was 25 mg/kg.
